Assay results as given in patent US11559510B2, “Isoflavonoid composition with improved pharmacokinetics” (NOXOPHARM LIMITED, priority 2016, dated 2023).
Where two headings read alike, the source gives them in different places.

Experiment: Plasma pharmacokinetic studies of idronoxil in rats (rectal in cocoa butter vs intestinal in lipid emulsion)
Format: in vivo, Male Sprague-Dawley rats
Procedure: The objective of this study in rodents is to determine the plasma pharmacokinetics of idronoxil after rectal delivery and intestinal delivery in lipids (cocoa butter or emulsion).
Part (1); n=3 rats: Rectal administration of idronoxil in cocoa butter liquid formulation, collection of plasma.
Part (2); n=3 rats: Intestinal administration (intraduodenal infusion) of idronoxil in lipid formulation, collection of plasma.
3 mg idronoxil per rat (equivalent to 10 mg/kg idronoxil).
Preparation of lipid formulation for intestinal dosing: Briefly, 3 mg of idronoxil, 80 mg oleic acid and 50 mg Tween 80 were mixed in a glass vial as the lipid phase. An aqueous phase consisting of 5.6 mL phosphate buffered saline (PBS, pH 7.4) was subsequently added to the lipid phase and the formulation emulsified by ultrasonication with a Misonix XL 2020 ultrasonic processor equipped with a 3.2-mm microprobe tip running at an amplitude of 240 μm and a frequency of 20 kHz for 4 min at room temperature.
Dose administration: The lipid formulations were infused into the duodenum of the rats at 2.8 mL/h for 2 h. After that, normal saline was infused into the duodenum at 2.8 mL/h for the remainder of the experiment to hydrate the animals.
Preparation of cocoa butter formulation for rectal dosing: Briefly, 100 mg of the cocoa butter was weighed into a homogenizer glass tube and melted at 32 degrees Celsius. 3 mg of idronoxil was then added and the formulation mixed manually with the homogenizer.
Dose administration: The warmed/melted cocoa butter formulations were dosed into the rectum via placing the tip of a 3 cm plastic mouse oral gavage device attached to a 1 ml plastic syringe exactly 1 cm into the rectum. The formulation was dosed over 15 sec. After that, normal saline was infused into the duodenum at 2.8 mL/h for the remainder of the experiment to hydrate the animals.
Male Sprague-Dawley rats (n=3 per group, body weight 300±40 g) were used in the study. Each animal was fasted overnight prior to surgical cannulation of the carotid artery and duodenum.
The rats were anaesthetized (using isoflurane anesthesia), placed on a heated pad at 37° C. and cannulas were inserted into the duodenum (for dosing of lipid formulation and rehydration) and carotid artery (for blood collection).
Post-surgery, rats were re-hydrated for 0.5 h via intraduodenal infusion of normal saline at 2.8 mL/h prior to dosing via intraduodenal or rectal route.
Plasma collection: Plasma samples were collected for 8 h into Eppendorf tubes containing 5 μL of 1,000 IU/mL heparin. Aliquots (20 μL) of each hourly collected samples were transferred into labelled 1.5 mL Eppendorf tubes. Aliquoted and original bulk samples were stored at −20° C. until analysis.
Sample analysis: Plasma concentrations of idronoxil were measured by the HMST-lab using a validated HPLC-MS/MS method. Briefly, LC-MS analysis was performed on a Shimadzu 8050 triple quadrupole mass spectrometer coupled with a Shimadzu Nexera X2 UHPLC. MS analysis was conducted in positive mode electrospray ionisation and quantitation of the analytes performed in MRM mode. The column employed was a Phenomenex Kinetex EVO C18 column (2.6 μm particle size, 50×2.1 mm i.d.) equipped with a Phenomenex Security Guard column with C18 packing material. The column was maintained at 40-C. The mobile phase consisted of 0.2% formic acid in water (Mobile Phase A) and 100% acetonitrile (Mobile Phase B). Separations were conducted using a flow rate of 0.4 mL/min and an injection volume of 6 μL. Samples were controlled in the autosampler at a temperature of 10° C.
Non-compartmental pharmacokinetic (PK) analysis: The elimination rate constant (slope), half-life (i.e., 0.693/k), and mean residence time (MRT) were calculated using excel. The area under the plasma-concentration time curves from time zero to 8 h (AUC0-8 h) were calculated using the trapezoid rule to the last measured time point.

[1] = male, Sprague-Dawley, rat, plasma, other: intraduodenal infusion, 10 mg/kg, Intestinal delivery (intraduodenal infusion), lipid emulsion, 10 mg/kg, read-out: Idronoxil Plasma Concentration Rat 2
[2] = male, Sprague-Dawley, rat, plasma, other: intraduodenal infusion, 10 mg/kg, Intestinal delivery (intraduodenal infusion), lipid emulsion, 10 mg/kg, read-out: Idronoxil Plasma Concentration Rat 3
[3] = male, Sprague-Dawley, rat, plasma, other: intraduodenal infusion, 10 mg/kg, Intestinal delivery (intraduodenal infusion), lipid emulsion, 10 mg/kg, read-out: Idronoxil Plasma Concentration Mean
[4] = male, Sprague-Dawley, rat, plasma, other: intraduodenal infusion, 10 mg/kg, Intestinal delivery (intraduodenal infusion), lipid emulsion, 10 mg/kg, read-out: Idronoxil Plasma Concentration Rat 1
[5] = male, Sprague-Dawley, rat, plasma, other: rectal, 10 mg/kg, Rectal delivery, cocoa butter, 10 mg/kg, read-out: Idronoxil Plasma Concentration Mean
[6] = male, Sprague-Dawley, rat, plasma, other: rectal, 10 mg/kg, Rectal delivery, cocoa butter, 10 mg/kg, read-out: Idronoxil Plasma Concentration Rat 1
[7] = male, Sprague-Dawley, rat, plasma, other: rectal, 10 mg/kg, Rectal delivery, cocoa butter, 10 mg/kg, read-out: Idronoxil Plasma Concentration Rat 2
[8] = male, Sprague-Dawley, rat, plasma, other: rectal, 10 mg/kg, Rectal delivery, cocoa butter, 10 mg/kg, read-out: Idronoxil Plasma Concentration Rat 3
[9] = oral delivery (intestinal delivery model)

Oc1ccc(C2=Cc3ccc(O)cc3OC2)cc1 [Idronoxil, 2H-1-Benzopyran-7-0,1,3-(4-hydroxyphenyl)] gave a concentration at 2 h [1] of 140 ng/mL, a concentration at 2 h [2] of 136 ng/mL and a concentration at 3 h [3] of 24.3 ng/mL. The concentration at 3 h [4] was 17.8 ng/mL, the concentration at 3 h [1] was 38.2 ng/mL and the concentration at 3 h [2] was 16.8 ng/mL. It also gave a concentration at 4 h [3] of 9.57 ng/mL, a concentration at 4 h [4] of 16.1 ng/mL and a concentration at 4 h [1] of 7.03 ng/mL. The concentration at 4 h [2] was 5.62 ng/mL, the concentration at 5 h [3] was 9.27 ng/mL and the concentration at 5 h [4] was 17.4 ng/mL. It also gave a concentration at 5 h [1] of 4.46 ng/mL, a concentration at 5 h [2] of 6 ng/mL and a concentration at 6 h [3] of 4.79 ng/mL. It also gave a concentration at 6 h [4] of 2.86 ng/mL, a concentration at 6 h [1] of 3.79 ng/mL and a concentration at 6 h [2] of 7.72 ng/mL. For the same compound, the concentration at 7 h [3] was 5.04 ng/mL, the concentration at 7 h [4] was 4.68 ng/mL and the concentration at 7 h [1] was 6.75 ng/mL. The concentration at 7 h [2] was 3.7 ng/mL, the concentration at 8 h [3] was 5.14 ng/mL and the concentration at 8 h [4] was 7.83 ng/mL. It also gave a concentration at 8 h [1] of 4.23 ng/mL, a concentration at 8 h [2] of 3.37 ng/mL and a concentration at 0 h (male, Sprague-Dawley, rat, plasma, other: rectal, 10 mg/kg, Rectal delivery, cocoa butter, 10 mg/kg, 0 hr, read-out: Idronoxil Plasma Concentration Mean) of 0 ng/mL. It also gave a concentration at 1 h [5] of 49.4 ng/mL, a concentration at 1 h [6] of 26.7 ng/mL and a concentration at 1 h [7] of 96.5 ng/mL. It also gave a concentration at 1 h [8] of 24.9 ng/mL, a concentration at 2 h [5] of 42.9 ng/mL and a concentration at 2 h [6] of 15.9 ng/mL. The concentration at 2 h [7] was 88.1 ng/mL, the concentration at 2 h [8] was 24.7 ng/mL and the concentration at 3 h [5] was 37.3 ng/mL. It also gave a concentration at 3 h [6] of 15.9 ng/mL, a concentration at 3 h [7] of 74.2 ng/mL and a concentration at 3 h [8] of 21.8 ng/mL. The concentration at 4 h [5] was 30.1 ng/mL, the concentration at 4 h [6] was 14.4 ng/mL and the concentration at 4 h [7] was 53.7 ng/mL. For the same compound, the concentration at 4 h [8] was 22.3 ng/mL, the concentration at 5 h [5] was 46.3 ng/mL and the concentration at 5 h [6] was 27.9 ng/mL. For the same compound, the concentration at 5 h [7] was 71.4 ng/mL, the concentration at 5 h [8] was 39.5 ng/mL and the concentration at 6 h [5] was 30.2 ng/mL. For the same compound, the concentration at 6 h [6] was 17.8 ng/mL, the concentration at 6 h [7] was 51.3 ng/mL and the concentration at 6 h [8] was 21.6 ng/mL. The concentration at 7 h [5] was 25 ng/mL, the concentration at 7 h [6] was 20.6 ng/mL and the concentration at 7 h [7] was 43 ng/mL. For the same compound, the concentration at 7 h [8] was 11.4 ng/mL, the concentration at 8 h [5] was 18.4 ng/mL and the concentration at 8 h [6] was 5.74 ng/mL. For the same compound, the concentration at 8 h [7] was 33.4 ng/mL, the concentration at 8 h [8] was 16.1 ng/mL and the “time at which drug levels are sub-therapeutic” value [9] was under 4 h. For the same compound, the “time within which drug levels substantially fall” value [9] was 2 to 3 h, the plasma concentration (rats, 10 mg/kg body weight, single rectal administration, up to 8 hours) was 35 to 40 ng/mL and the “time for which therapeutic levels of free idronoxil were maintained in the blood” value (rectal delivery) was “at least 8 hours”. For the same compound, the “half-life, rectal relative to oral idronoxil” value (rectal vs oral) was “at least 5 times” and the “time for which idronoxil levels remain almost constant (steady-state levels) post administration” value (rectally-dosed rats) was “at least 8 hours”.
